What follows are molecules tested on Liposome (assay: In vitro inhibition of peroxyl radical-dependent oxidation of liposomes from soybean phosphatidylcholine by ethanol injection.).
Format: functional, Glycine max
`COc1ccc2c(c1)C=[N+]([O-])C(C)(C)C2` showed an IC50 of 67 µM. In the case of `CC1(C)Cc2ccccc2C=[N+]1[O-]`, the IC50 is reported as 200 µM. Work on `CC1(C)Cc2cc(F)ccc2C=[N+]1[O-]` yielded an IC50 of 160 µM. With `[O-][N+]1=Cc2cc(Cl)ccc2CC12CCCCC2` the IC50 was 3 µM. `COc1ccc(F)c2c1CC(C)(C)[N+]([O-])=C2` showed an IC50 of 56 µM. In the case of `CC1(C)Cc2cc(Cl)cc(Cl)c2C=[N+]1[O-]`, the IC50 is reported as 18 µM. With `COc1cccc2c1C=[N+]([O-])C1(CCCCC1)C2` the IC50 was 38 µM. In the case of `CC1(C)Cc2c(Cl)cccc2C=[N+]1[O-]`, the IC50 is reported as 24 µM. Work on `[O-][N+]1=Cc2ccccc2CC12CCCCC2` yielded an IC50 of 8 µM. In the case of `COc1ccc2c(c1)CC1(CCCCC1)[N+]([O-])=C2`, the IC50 is reported as 11 µM. `CC1(C)Cc2cccc(Cl)c2C=[N+]1[O-]` was tested, and the IC50 was 45 µM. `CC1(C)Cc2ccc(F)cc2C=[N+]1[O-]` showed an IC50 of 67 µM. Work on `CC1(C)Cc2ccc(Cl)cc2C=[N+]1[O-]` yielded an IC50 of 41 µM. Work on `COc1ccc2c(c1)CC(C)(C)[N+]([O-])=C2` yielded an IC50 of 69 µM. Molecule `[O-][N+]1=Cc2ccccc2CC12CCCC2` has an IC50 of 21 µM. Molecule `COc1cc2c(cc1OC)CC(C)(C)[N+]([O-])=C2` has an IC50 of 130 µM. `CC1(C)Cc2cc(Cl)ccc2C=[N+]1[O-]` gave an IC50 of 55 µM. Molecule `CC(C)(C)/[N+]([O-])=C/c1ccccc1` has an IC50 of 2170 µM.

Source: ChEMBL document CHEMBL1129772, “Synthesis and radical scavenging activity of 3,3-dialkyl-3,4-dihydro-isoquinoline 2-oxides” (Bioorg Med Chem Lett, 1996)
